± gives the expanded uncertainty stated by the source.
Columns and labels:
[1] = mn = molality of the nth substance listed, in mol/kg; conditions: 101.3 kPa, Liquid, m2 = 0; for viscosity: Capillary tube (Ostwald / Ubbelohde) method; for mass density: Pycnometric method
[2] = 101.3 kPa, Liquid; for viscosity: Capillary tube (Ostwald / Ubbelohde) method; for mass density: Pycnometric method

Structure (SMILES)	viscosity ([1]; 275.15 K)	mass density ([1]; 275.15 K)	viscosity ([1]; 277.15 K)	mass density ([1]; 277.15 K)	viscosity ([1]; 279.15 K)	mass density ([1]; 279.15 K)	viscosity ([2]; 275.15 K)	mass density ([2]; 275.15 K)	viscosity ([2]; 277.15 K)	mass density ([2]; 277.15 K)	viscosity ([2]; 279.15 K)	mass density ([2]; 279.15 K)
O [water] + O=C1O[C@H]([C@@H](O)CO)C([O-])=C1O.[Na+]	1.674 ± 0.035 mPa·s	999.94 ± 0.29 kg/m3	1.567 ± 0.032 mPa·s	999.97 ± 0.28 kg/m3	1.472 ± 0.03 mPa·s	999.94 ± 0.28 kg/m3	–	–	–	–	–	–
O [water] + Cc1ncc(C[n+]2csc(CCO)c2C)c(N)n1.Cl.[Cl-]	1.674 ± 0.035 mPa·s	999.94 ± 0.28 kg/m3	1.567 ± 0.032 mPa·s	999.97 ± 0.28 kg/m3	1.472 ± 0.03 mPa·s	999.94 ± 0.28 kg/m3	–	–	–	–	–	–
O [water]	–	–	–	–	–	–	1.674 ± 0.035 mPa·s	999.94 ± 0.28 kg/m3	1.567 ± 0.032 mPa·s	999.97 ± 0.28 kg/m3	1.472 ± 0.03 mPa·s	999.94 ± 0.28 kg/m3
O [water] + Cc1ncc(CO)c(CO)c1O.Cl	1.674 ± 0.035 mPa·s	999.94 ± 0.28 kg/m3	1.567 ± 0.032 mPa·s	999.97 ± 0.28 kg/m3	1.472 ± 0.03 mPa·s	999.94 ± 0.27 kg/m3	–	–	–	–	–	–
